Values of other authors as cited in patent US20050020810A1, “Peptides which target tumor and endothelial cells, compositions and uses thereof” (priority 2002, published 2005).

How the values were obtained:
CT26 colon cancer = settings: in combination with 5-FU infusion
MatLyLu cells = settings: rat model

For Ac—PHSCN—NH2, the survival (CT26 colon cancer) is listed as “improved survival”, the “metastasis of MatLyLu cells” value (MatLyLu cells) is listed as “completely inhibits” and the DU145 invasion (DU145) is listed as “completely inhibits”.
